Experimental findings from ChEMBL document CHEMBL1152720, “Discovery and SAR of para-alkylthiophenoxyacetic acids as potent and selective PPARdelta agonists” (Bioorg Med Chem Lett, 2009) are described below.

A word on the EC50: it is the concentration at which the effect is half-maximal.

Assay [1] has as its target T1, Peroxisome proliferator-activated receptor delta (Homo sapiens, UniProt Q03181).
T1 sequence (Q03181 whole entry): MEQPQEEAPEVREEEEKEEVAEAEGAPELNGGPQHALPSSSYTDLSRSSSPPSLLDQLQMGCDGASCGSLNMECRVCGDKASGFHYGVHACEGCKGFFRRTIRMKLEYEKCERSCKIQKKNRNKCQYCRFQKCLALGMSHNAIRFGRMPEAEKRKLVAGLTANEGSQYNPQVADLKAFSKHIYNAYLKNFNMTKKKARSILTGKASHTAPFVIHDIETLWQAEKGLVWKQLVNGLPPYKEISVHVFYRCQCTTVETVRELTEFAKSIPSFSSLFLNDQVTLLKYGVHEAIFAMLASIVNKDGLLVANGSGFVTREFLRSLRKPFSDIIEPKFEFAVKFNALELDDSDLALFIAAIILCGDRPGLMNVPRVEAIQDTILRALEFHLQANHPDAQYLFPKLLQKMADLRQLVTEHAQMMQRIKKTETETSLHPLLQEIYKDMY
The assay is described as follows: Agonist activity at human PPARdelta. The format is functional.

For assay [2], the target named is T2, Peroxisome proliferator-activated receptor alpha (Homo sapiens, UniProt Q07869).
T2 sequence (Q07869 whole entry): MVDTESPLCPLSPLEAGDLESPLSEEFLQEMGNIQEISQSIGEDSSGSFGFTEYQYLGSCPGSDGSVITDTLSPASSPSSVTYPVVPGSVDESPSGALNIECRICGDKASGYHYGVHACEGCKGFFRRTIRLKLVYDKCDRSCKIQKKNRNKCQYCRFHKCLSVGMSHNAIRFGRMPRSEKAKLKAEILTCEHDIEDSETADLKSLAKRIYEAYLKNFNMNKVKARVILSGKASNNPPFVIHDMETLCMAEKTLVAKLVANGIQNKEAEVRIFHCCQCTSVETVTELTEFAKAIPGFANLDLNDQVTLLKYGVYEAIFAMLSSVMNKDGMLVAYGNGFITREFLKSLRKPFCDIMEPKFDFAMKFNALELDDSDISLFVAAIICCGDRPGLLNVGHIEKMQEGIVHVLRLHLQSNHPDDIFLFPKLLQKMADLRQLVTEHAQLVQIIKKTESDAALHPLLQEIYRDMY
The assay can be described thus: Activity at PPARalpha.

Assay [3] has as its target T3, Peroxisome proliferator-activated receptor gamma (Homo sapiens, UniProt P37231).
T3 sequence (P37231 whole entry): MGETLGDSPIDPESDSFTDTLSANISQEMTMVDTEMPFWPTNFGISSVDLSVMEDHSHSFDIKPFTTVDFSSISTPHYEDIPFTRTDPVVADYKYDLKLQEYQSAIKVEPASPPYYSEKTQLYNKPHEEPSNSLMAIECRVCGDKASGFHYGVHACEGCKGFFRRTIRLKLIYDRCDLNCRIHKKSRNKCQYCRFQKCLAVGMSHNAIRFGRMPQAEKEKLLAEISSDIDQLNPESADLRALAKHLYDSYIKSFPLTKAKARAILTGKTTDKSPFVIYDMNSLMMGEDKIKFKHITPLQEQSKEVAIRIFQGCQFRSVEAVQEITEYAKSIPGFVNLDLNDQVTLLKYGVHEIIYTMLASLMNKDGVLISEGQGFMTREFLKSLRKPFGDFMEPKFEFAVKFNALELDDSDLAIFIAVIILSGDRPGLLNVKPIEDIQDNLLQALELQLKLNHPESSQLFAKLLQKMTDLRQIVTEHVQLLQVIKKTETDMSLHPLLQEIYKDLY
The assay can be described thus: Activity at PPARgamma.

Take `CCCC(CCC)(COc1ccc(C(F)(F)F)cc1)CSc1ccc(OCC(=O)O)c(C)c1`: in assay [1], the EC50 worked out at 0.0086 µM.

As for `C=C(CNc1ccc(C(F)(F)F)cc1)CSc1ccc(OCC(=O)O)c(C)c1`, the EC50 in assay [1] is above 0.5 µM; in assay [2], above 1 µM; in assay [3] it was above 1 µM.

As to `C=C(COc1ccccc1)CSc1ccc(OCC(=O)O)c(C)c1`, the concentration giving a half-maximal response (EC50) in assay [2] and in assay [3] was above 1 µM throughout.

Turning to `C=C(COc1ccc(Cl)c(Cl)c1)CSc1ccc(OCC(=O)O)c(C)c1`, the concentration giving a half-maximal response (EC50) in assay [1] is 0.0498 µM; in assay [2], above 1 µM; in assay [3], above 1 µM.

Turning to `C=C(COc1ccc(OC)cc1)CSc1ccc(OCC(=O)O)c(C)c1`, the EC50 in assay [2] and in assay [3] was above 1 µM in each case.

Regarding `C=C(COc1ccc(N(C)C)cc1)CSc1ccc(OCC(=O)O)c(C)c1`, the concentration for a half-maximal effect (EC50) in assay [2] and in assay [3] was above 1 µM in each case.

In the case of `C=C(CCc1ccc(C(F)(F)F)cc1)CSc1ccc(OCC(=O)O)c(C)c1`, the concentration for a half-maximal effect (EC50) in assay [2] and in assay [3] was above 1 µM each time.

In the case of `C=C(COc1ccc(C(F)(F)F)cc1)CSc1ccc(OCC(=O)O)c(Cl)c1`, the EC50 was 0.0467 µM in assay [1], above 1 µM in assay [2] and above 1 µM in assay [3].

As for `C=C(COc1ccc(C(F)(F)F)cc1)CSc1ccc(OCC(=O)O)c(C(F)(F)F)c1`, the 50% effective concentration (EC50) in assay [1], in assay [2] and in assay [3] was above 1 µM in each case.

Take `C=C(COc1ccc(Cl)cc1Cl)CSc1ccc(OCC(=O)O)c(C)c1`: the concentration for a half-maximal effect (EC50) in assay [2] and in assay [3] was above 1 µM in each case.

Turning to `C=C(COc1ccc(C(F)(F)F)cc1)CSc1ccc(OCC(=O)O)c(C)c1`, the EC50 in assay [2] and in assay [3] was above 1 µM throughout.

`Cc1cc(SCC(COc2ccc(C(F)(F)F)cc2)=C(F)F)ccc1OCC(=O)O`: it took 0.0696 µM to reach a half-maximal effect in assay [1] (EC50).

`C=C(COc1ccc(OC(F)(F)F)cc1)CSc1ccc(OCC(=O)O)c(C)c1`: the EC50 in assay [1] is 0.0284 µM; in assay [2], above 1 µM; in assay [3] it was above 1 µM.

Consider `C=C(COc1ccc(Cl)c(C(F)(F)F)c1)CSc1ccc(OCC(=O)O)c(C)c1`, for which the concentration giving a half-maximal response (EC50) in assay [1] was above 0.5 µM; in assay [2], above 1 µM; in assay [3] it was above 1 µM.

`C=C(COc1ccc(C(F)(F)F)cc1)CSc1ccc(OCC(=O)O)c(OC)c1`: the EC50 in assay [1], in assay [2] and in assay [3] was above 1 µM in each case.

In the case of `C=C(CSc1ccc(C(F)(F)F)cc1)CSc1ccc(OCC(=O)O)c(C)c1`, the EC50 in assay [2] and in assay [3] was above 1 µM in each case.

On to `C=C(COc1ccc(Cl)cc1)CSc1ccc(OCC(=O)O)c(C)c1`, for which the EC50 in assay [1] is 0.0655 µM; in assay [2] it was above 1 µM; in assay [3], above 1 µM.

In the case of `C=C(COc1ccc(C(F)(F)F)cc1)COc1ccc(OCC(=O)O)c(C)c1`, the EC50 in assay [2] and in assay [3] was above 1 µM throughout.

Consider `C=C(COc1ccc(C(F)(F)F)cc1)CSc1ccc(OCC(=O)O)cc1Cl`, for which the concentration for a half-maximal effect (EC50) in assay [1] is above 0.5 µM; in assay [2], above 1 µM; in assay [3], above 1 µM.

For `Cc1cc(SC/C(=C/C#N)COc2ccc(C(F)(F)F)cc2)ccc1OCC(=O)O`, it took 0.0354 µM to reach a half-maximal effect in assay [1] (EC50).
